US5214048A, “Oxetanocins” (priority 1987, dated 1993)
Values after ≈ are worked out from the molar mass of the structure shown.

Key:
[1] = test system: T lymphocyte (spleen cells stimulated by Con A); assay: Inhibition of T lymphocyte blastgenesis caused by Con A; format: cell-based, BALB/C mouse; settings: for inhibition at 0.8 µg/mL / inhibition at 4 µg/mL / inhibition at 20 µg/mL: Mus musculus, T-lymphocyte, read-out: Inhibitory rate (%) on T lymphocyte blastgenesis caused by Con A; for inhibition at 0.8 µg/mL: 0.8 μg/ml; for inhibition at 4 µg/mL: 4.0 μg/ml; for inhibition at 20 µg/mL: 20.0 μg/ml
Experimental: (§1) In the similar method to Waithe et al. (Waithe et al., Handbook of Experimental Immunology, 26, 1, 1978), compounds OXT-X, 2-amino-OXT-A and OXT-G were examined for the effect on lymphocyte blastgenesis.
Inhibition of T lymphocyte blastgenesis caused by Con A:
Spleen cells of BALB/C mouse were dividingly poured into microplate at a rate of 2×10^5 cells/0.2 ml/well. Test compounds of varied concentration were added to wells other than control group. Further, Con A was added to all the wells at a rate of 5 micrograms/ml. Then, the cell suspensions were cultured at 37° C. for 72 hours in a culture chamber having an atmosphere of 5% v/v carbon dioxide. The extent of lymphocyte blastgenesis was determined by adding 1 μci/well of ^3 [H]-thymidine 6 hours before completion of culture and measuring the intake into cultured cells by means of a liquid scintillation counter. Numerical value (1-B dpm/A dpm)×100 was taken as inhibitory rate of each sample compound on blastgenesis, wherein A dpm was intake count in the case of adding Con A only and B dpm was intake count in the case of adding Con A and the sample compound.

[2] = test system: B lymphocyte (spleen cells stimulated by LPS); assay: Inhibition of B lymphocyte blastgenesis caused by LPS; format: cell-based, BALB/C mouse; settings: for inhibition at 4 µg/mL / inhibition at 20 µg/mL: Mus musculus, Lymphocyte, read-out: Inhibitory rate (%) on blastgenesis of B lymphocyte caused by LPS; for inhibition at 4 µg/mL: 4.0 μg/ml; for inhibition at 20 µg/mL: 20.0 μg/ml
Experimental: as §1
Inhibition of B lymphocyte blastgenesis caused by LPS (lipopolysaccharide)
According to the method of Test Example 1 (except that 100 μg/ml of Escherichia coli LPS was added in place of Con A), the intake of ^3 [H]-thymidine into blastgenesis B cells was measured. The inhibitory rate of the test sample was similarly determined.

[3] = test system: HIV (human immunodeficiency virus); assay: Anti-HIV activity (development of virus antigen in MT-4 cells); format: cell-based; settings: DMSO only 80 to 90%
Experimental: (b) Anti-HIV (human immunodeficiency virus) activity
MT-4 cell (about 100,000 cells/ml) was added into a 24 well tray, and then 100 microliters of a solution containing a predetermined quantity of a compound of this invention was added. After culturing it at 37° C. for 5 hours in 5% (v/v) carbon dioxide incubator, 10^3 to 10^4 infection units of HIV was added and cultured for 4 days. Then, a part of the culture fluid was coated onto a slide glass and immobilized with acetone, after which development of virus antigen was observed by indirect fluorescent antibody method.
As the primary antibody of the fluorescent antibody method, a serum of AIDS patient was used. As its secondary antibody, FITC-labelled […] was used.

MT-4 cells = assay: Cell denaturation of MT-4 cells without virus; format: cell-based; settings: 100 μg/ml
[4] = test system: cytomegalovirus (A01169 strain); assay: Anti-cytomegalovirus activity (plaque formation on human fetal fibroblasts); format: cell-based; settings: for IC50: Human betaherpesvirus 5, Fibroblast, 240 h, human fetal fibroblasts, 10 days
[5] = test system: herpes simplex virus type-2 (HSV-2) strain 186; assay: Effect of treatment against HSV-2 infection in mice; format: in vivo, ICR mice; settings: 5 days
Experimental: (a) Effect of treatment with OXTs against HSV-2 infection in mice
The 8-week old male ICR mice were inoculated intraperitoneally (ip) with herpes simplex virus type-2(HSV-2)strain 186 at 2.5×10^5 PFU/0.2 ml/mouse. OXTs were administered ip once a day with the indicated doses for 5 days, starting 6 hours after inoculation. The survival rates (%)of mice treated with OXTs were evaluated at least for 3 weeks after inoculation.

[6] = test system: duck hepatitis B virus (DHBV); assay: Efficacy against DHBV-infected duck (dot-blot hybridization of sera); format: in vivo; settings: 6 days
Experimental: (c) Efficacy of OXT-G and 2-Amino-OXT-A against DHBV-infected Duck Newborn ducklings were intraperitoneally infected with 50 μl of duck hepatitis B virus (DHBV) containing sera. Persistent infection in ducks was confirmed by dot-blot hybridization of sera taken from 6 week old ducks. Ducks were intraperitoneally treated with the indicated doses of OXT-G and 2-Animo-OXT-A once a day for 6 days. After treatment of OXTs sera were collected and examined for the presence of DHBV-DNA by dot-blot hybridization as ^32 p-labeled DHBV DNA probe.

[7] = test system: murine cytomegalovirus (MCMV) Smith strain; assay: Efficacy against MCMV infection in mice, body weight; format: in vivo, ICR mice; settings: 10 mg/kg/day
Experimental: (b) Efficacy of treatment with OXT-G against MCMV infection in mice The 4-week old male ICR mice was inoculated intraperitoneally with Smith strain of murine cytomegalovirus (MCMV) at 1×10^5 PFU/0.2 ml and treated with 10 mg/kg/day of OXT-G once a day for 5 days, starting 6 hours after inoculation. The mortality and changes in body weight were monitored every day.

[8] = test system: murine cytomegalovirus (MCMV) Smith strain; assay: Titers of MCMV in various tissues of mice; format: in vivo, ICR mice; settings: for Virus titer: 6 days after infection

Row | Compound | effect on blastgenesis of T lymphocyte stimulated by Con A [1] | inhibition at 0.8 µg/mL [1] | inhibition at 4 µg/mL [1] | inhibition at 20 µg/mL [1] | effect on blastgenesis of B lymphocyte stimulated by LPS [2] | inhibition at 4 µg/mL [2] | inhibition at 20 µg/mL [2] | Development of virus antigen (%) ([3]; 1 μg/ml) | Development of virus antigen (%) ([3]; 10 μg/ml) | Development of virus antigen (%) ([3]; 100 μg/ml) | Cell denaturation (MT-4 cells) | anti-cytomegalovirus inhibitory action [4] | IC50 [4] | Survivor/Total ([5]; 10 mg/kg/day ip) | survival rate (%) ([5]; 10 mg/kg/day ip) | Content (%) of DHBV in sera ([6]; 20 mg/kg/day ip) | Content (%) of DHBV in sera ([6]; 50 mg/kg/day ip) | Content (%) of DHBV in sera ([6]; 100 mg/kg/day ip) | further results
1 | Nc1nc(N)c2ncn([C@@H]3O[C@H](CO)[C@H]3CO)c2n1 [2-Amino-OXT-A] | markedly suppressed | 21% | 94% | 99% | markedly suppressed | 23% | 93% | 30% | 26% | 5% | ±~+ | particularly outstanding in the inhibitory action | 2 µg/mL (≈ 7.51 µM) | 7/10 | 70% | 28% | 18% | 8% | 
2 | Nc1ncnc2c1ncn2[C@@H]1O[C@H](CO)[C@H]1CO [OXT-A, reference compound] |  |  |  |  |  |  |  |  |  |  |  |  | 13 µg/mL (≈ 51.7 µM) |  |  |  |  |  | 
3 | Nc1nc2c(ncn2[C@@H]2O[C@H](CO)[C@H]2CO)c(=O)[nH]1 [OXT-G] | markedly suppressed | 85% | 96% | 100% | markedly suppressed | 64% | 93% | 42% | 17% |  |  | particularly outstanding in the inhibitory action | 1 µg/mL (≈ 3.74 µM) | 8/10 | 80% | 9% | 25% | 3% | Survivor/Total ([5]; 5 mg/kg/day ip): 3/10; survival rate (%) ([5]; 5 mg/kg/day ip): 30%; Survivor/Total ([5]; 20 mg/kg/day ip): 10/10; survival rate (%) ([5]; 20 mg/kg/day ip): 100%; body weight of MCMV-infected mice [7]: maintained their body weight on the initial level for several days and gradually gained weight thereafter; Average (5 mice) of body weight ([7]; day 0): 18.0 g; Average (5 mice) of body weight ([7]; day 4): 20.0 g; Average (5 mice) of body weight ([7]; day 8): 24.5 g; Average (5 mice) of body weight ([7]; day 14): 31.0 g; Virus titer ([8]; Kidney): < 2 PFU/0.1 g tissue; Virus titer ([8]; Liver): < 2 PFU/0.1 g tissue; Virus titer ([8]; Lung): < 2 PFU/0.1 g tissue; Virus titer ([8]; Spleen): < 2 PFU/0.1 g tissue; quantity of MCMV recovered from the tissues ([8]; mouse, in vivo): significant reduction in the quantity of MCMV recovered from the tissues
4 | O=c1[nH]cnc2c1ncn2[C@@H]1O[C@H](CO)[C@H]1CO [OXT-H, reference compound] |  |  |  |  |  |  |  |  |  |  |  |  | 18 µg/mL (≈ 71.4 µM) |  |  |  |  |  | 
5 | O=c1[nH]c(=O)c2ncn([C@@H]3O[C@H](CO)[C@H]3CO)c2[nH]1 [OXT-X] | markedly suppressed | 11% | 36% | 71% | markedly suppressed | 8% | 27% | 66% | 52% | 5% | ±~+ |  |  |  |  |  |  |  | 
